In ChEMBL document CHEMBL6114969, “Ultra-short lipopeptides containing d-amino acid exhibiting excellent stability and antibacterial activity against gram-positive bacteria” (Eur J Med Chem, 2025):
Values after ≈ are worked out from the molar mass of the structure shown.

What was measured:
[1] = Retention time of compound by RP-HPLC analysis; type: physicochemical
Staphylococcus aureus [2] = assay: Antibacterial activity against Staphylococcus aureus ATCC 25923 incubated for 18 to 24 hrs by broth microdilution method; type: functional; details: time 18-24 hrs
Staphylococcus aureus [3] = assay: Antibacterial activity against methicillin-resistant Staphylococcus aureus ATCC 33591 incubated for 18 to 24 hrs in presence of 2 mg/ml of chymotrypsin by broth microdilution method; type: functional; details: time 18-24 hrs
Staphylococcus aureus [4] = assay: Antibacterial activity against methicillin-resistant Staphylococcus aureus ATCC 33591 assessed as fold change in MIC incubated for 18 to 24 hrs in presence of NaCl by broth microdilution method; type: functional; details: time 18-24 hrs
Staphylococcus aureus [5] = assay: Antibacterial activity against methicillin-resistant Staphylococcus aureus ATCC 33591 incubated for 18 to 24 hrs in presence of 1 mg/ml of trypsin by broth microdilution method; type: functional; details: time 18-24 hrs
Staphylococcus aureus [6] = assay: Antibacterial activity against methicillin-resistant Staphylococcus aureus ATCC 33591 incubated for 18 to 24 hrs in presence of 0.5 mg/ml of pepsin by broth microdilution method; type: functional; details: time 18-24 hrs
Staphylococcus aureus [7] = assay: Antibacterial activity against methicillin-resistant Staphylococcus aureus ATCC 33591 assessed as fold change in MIC incubated for 18 to 24 hrs in presence of MgCl2 by broth microdilution method; type: functional; details: time 18-24 hrs
Staphylococcus aureus [8] = assay: Antibacterial activity against methicillin-resistant Staphylococcus aureus ATCC 33591 incubated for 18 to 24 hrs in presence of 0.5 mg/ml of chymotrypsin by broth microdilution method; type: functional; details: time 18-24 hrs
Staphylococcus aureus [9] = assay: Antibacterial activity against Staphylococcus aureus ATCC 29213 incubated for 18 to 24 hrs by broth microdilution method; type: functional; details: time 18-24 hrs
Staphylococcus aureus [10] = assay: Antibacterial activity against methicillin-resistant Staphylococcus aureus ATCC 33591 incubated for 18 to 24 hrs in presence of 1 mg/ml of chymotrypsin by broth microdilution method; type: functional; details: time 18-24 hrs
[11] = Hemolytic activity in mouse Red blood cells incubated for 1 hr by absorbance based analysis; type: toxicity, cell-based; details: erythrocyte
Enterococcus faecalis = assay: Antibacterial activity against Enterococcus faecalis ATCC 29212 incubated for 18 to 24 hrs by broth microdilution method; type: functional; details: time 18-24 hrs
Staphylococcus aureus [12] = assay: Antibacterial activity against methicillin-resistant Staphylococcus aureus ATCC 33591 assessed as fold change in MIC incubated for 18 to 24 hrs in presence of 10 percent FBS by broth microdilution method; type: functional; details: time 18-24 hrs
Staphylococcus aureus [13] = assay: Antibacterial activity against methicillin-resistant Staphylococcus aureus ATCC 33591 incubated for 18 to 24 hrs in presence of 0.5 mg/ml of trypsin by broth microdilution method; type: functional; details: time 18-24 hrs
Staphylococcus aureus [14] = assay: Antibacterial activity against methicillin-resistant Staphylococcus aureus ATCC 33591 incubated for 18 to 24 hrs in presence of 2 mg/ml of pepsin by broth microdilution method; type: functional; details: time 18-24 hrs
Staphylococcus aureus [15] = assay: Antibacterial activity against methicillin-resistant Staphylococcus aureus ATCC 33591 incubated for 18 to 24 hrs in presence of 1 mg/ml of pepsin by broth microdilution method; type: functional; details: time 18-24 hrs
[16] = tested on: Staphylococcus epidermidis; assay: Antibacterial activity against Staphylococcus epidermidis ATCC 12228 incubated for 18 to 24 hrs by broth microdilution method; type: functional; details: time 18-24 hrs
Staphylococcus aureus [17] = assay: Antibacterial activity against methicillin-resistant Staphylococcus aureus ATCC 33591 incubated for 18 to 24 hrs by broth microdilution method; type: functional; details: time 18-24 hrs
Staphylococcus aureus [18] = assay: Antibacterial activity against methicillin-resistant Staphylococcus aureus ATCC 33591 assessed as fold change in MIC incubated for 18 to 24 hrs in presence of 10 percent mouse serum by broth microdilution method; type: functional; details: time 18-24 hrs
Staphylococcus aureus [19] = assay: Antibacterial activity against methicillin-resistant Staphylococcus aureus ATCC 33591 incubated for 18 to 24 hrs in presence of 2 mg/ml of trypsin by broth microdilution method; type: functional; details: time 18-24 hrs

| Structure (SMILES) | Retention_time [1] [min] | MIC (Staphylococcus aureus [2]) [µM] | MIC (Staphylococcus aureus [3]) [µM] | fold change (FC) (Staphylococcus aureus [4]) | MIC (Staphylococcus aureus [5]) [µM] | MIC (Staphylococcus aureus [6]) [µM] | fold change (FC) (Staphylococcus aureus [7]) | MIC (Staphylococcus aureus [8]) [µM] | MIC (Staphylococcus aureus [9]) [µM] | MIC (Staphylococcus aureus [10]) [µM] | HC10 [11] [µM] | MIC (Enterococcus faecalis) [µM] | fold change (FC) (Staphylococcus aureus [12]) | MIC (Staphylococcus aureus [13]) [µM] | MIC (Staphylococcus aureus [14]) [µM] | MIC (Staphylococcus aureus [15]) [µM] | MIC [16] [µM] | MIC (Staphylococcus aureus [17]) [µM] | fold change (FC) (Staphylococcus aureus [18]) | MIC (Staphylococcus aureus [19]) [µM] |
| --- | --- | --- | --- | --- | --- | --- | --- | --- | --- | --- | --- | --- | --- | --- | --- | --- | --- | --- | --- | --- |
| CCCCCCCCCCCC(=O)N[C@@H](CCCNC(=N)N)C(=O)N[C@H](CCCNC(=N)N)C(=O)N[C@H](Cc1c[nH]c2ccccc12)C(=O)O | 19.303 | 4 (≈ 2.8 µg/mL) | 32 | <3 | > 128 | 4 | <3 | 8 | 4 (≈ 2.8 µg/mL) | 8 | 64 | 16 (≈ 11.2 µg/mL) | 8 | 128 | 16 | 8 | 2 (≈ 1.4 µg/mL) | 4 (≈ 2.8 µg/mL) | 4 | > 128 |
| CCCCCCCCCCCC(=O)N[C@H](CCCNC(=N)N)C(=O)N[C@@H](CCCNC(=N)N)C(=O)N[C@@H](Cc1c[nH]c2ccccc12)C(=O)O | 19.259 | 4 (≈ 2.8 µg/mL) | 128 | <3 | 64 | 8 | <3 | 16 | 4 (≈ 2.8 µg/mL) | 32 | 64 | 8 (≈ 5.59 µg/mL) | 8 | 64 | 32 | 16 | 2 (≈ 1.4 µg/mL) | 4 (≈ 2.8 µg/mL) | 4 | 128 |
| CCCCCCCCCCCC(=O)N[C@H](CCCNC(=N)N)C(=O)N[C@@H](CCCNC(=N)N)C(=O)N[C@H](Cc1c[nH]c2ccccc12)C(=O)O | 19.092 | 4 (≈ 2.8 µg/mL) | 8 | <3 | 16 | 4 | <3 | 8 | 4 (≈ 2.8 µg/mL) | 8 | 128 | 16 (≈ 11.2 µg/mL) | 8 | 8 | 8 | 8 | 2 (≈ 1.4 µg/mL) | 4 (≈ 2.8 µg/mL) | 4 | 32 |
| CN[C@H](CC(C)C)C(=O)N[C@H]1C(=O)N[C@@H](CC(N)=O)C(=O)N[C@H]2C(=O)N[C@H]3C(=O)N[C@H](C(=O)N[C@H](C(=O)O)c4cc(O)cc(O)c4-c4cc3ccc4O)[C@H](O)c3ccc(c(Cl)c3)Oc3cc2cc(c3O[C@@H]2O[C@H](CO)[C@@H](O)[C@H](O)[C@H]2O[C@H]2C[C@](C)(N)[C@H](O)[C@H](C)O2)Oc2ccc(cc2Cl)[C@H]1O [VANCOMYCIN] | – | ≤ 0.5 | – | – | – | – | – | – | ≤ 0.5 | – | – | 2 (≈ 2.9 µg/mL) | – | – | – | – | 1 (≈ 1.45 µg/mL) | ≤ 0.5 | – | – |
| CCCCCCCCCCCC(=O)N[C@@H](CCCNC(=N)N)C(=O)N[C@H](CCCNC(=N)N)C(=O)N[C@@H](Cc1c[nH]c2ccccc12)C(=O)O | 18.997 | 4 (≈ 2.8 µg/mL) | 32 | <3 | 32 | 64 | <3 | 16 | 4 (≈ 2.8 µg/mL) | 32 | 128 | 8 (≈ 5.59 µg/mL) | 8 | 16 | 64 | 64 | 2 (≈ 1.4 µg/mL) | 4 (≈ 2.8 µg/mL) | 4 | 32 |
| CCCCCCCCCCCC(=O)N[C@H](CCCNC(=N)N)C(=O)N[C@H](CCCNC(=N)N)C(=O)N[C@@H](Cc1c[nH]c2ccccc12)C(=O)O | 18.527 | 4 (≈ 2.8 µg/mL) | 64 | <3 | 32 | 4 | <3 | 32 | 4 (≈ 2.8 µg/mL) | 64 | 128 | 8 (≈ 5.59 µg/mL) | 8 | 32 | 32 | 8 | 2 (≈ 1.4 µg/mL) | 4 (≈ 2.8 µg/mL) | 8 | 64 |
| CCCCCCCCCCCC(=O)N[C@@H](CCCNC(=N)N)C(=O)N[C@@H](CCCNC(=N)N)C(=O)N[C@H](Cc1c[nH]c2ccccc12)C(=O)O | 18.476 | 4 (≈ 2.8 µg/mL) | > 128 | <3 | > 128 | 16 | <3 | > 128 | 4 (≈ 2.8 µg/mL) | > 128 | 128 | 16 (≈ 11.2 µg/mL) | 8 | > 128 | 128 | 128 | 2 (≈ 1.4 µg/mL) | 4 (≈ 2.8 µg/mL) | 4 | > 128 |
